According to patent US20060069132A1, “Azolecarboxamide herbicides” (priority 2004, published 2006):

Legend:
green foxtail [1] = test: Test C postemergence herbicide test; format: in vivo, Setaria viridis
In short: (§1)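 Postemergence sprays were applied to plants 2 to 18 cm tall (1- to 4-leaf stage); in the flooded paddy test, barnyardgrass was grown to the 2-leaf stage. After 12 to 14 days in a greenhouse, injury was visually rated against untreated controls on a 0–100 scale (100 = complete control).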

wheat = test: Test C postemergence herbicide test; format: in vivo, Triticum aestivum
In short: as §1

bipinnate beggarticks = test: Test E pre-/postemergence herbicide test; format: in vivo, Bidens bipinnata; conditions: Preemergence
In short: (§2)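 Ratings from 0 (no effect) to 100 (complete control) were assigned by visual comparison with untreated plants 12 to 14 days after application. Test chemicals, formulated with surfactant in a non-phytotoxic solvent blend, were applied to soil after planting or to foliage of 2–18 cm plants.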

bermudagrass = test: Test E pre-/postemergence herbicide test; format: in vivo, Cynodon dactylon; conditions: Preemergence
In short: as §2

green foxtail [2] = test: Test E pre-/postemergence herbicide test; format: in vivo, Setaria viridis; conditions: Preemergence
In short: as §2

goosegrass = test: Test E pre-/postemergence herbicide test; format: in vivo, Eleusine indica; conditions: Preemergence
In short: as §2

johnsongrass = test: Test E pre-/postemergence herbicide test; format: in vivo, Sorghum halepense; conditions: Preemergence
In short: as §2

southern sandbur = test: Test E pre-/postemergence herbicide test; format: in vivo, Cenchrus echinatus; conditions: Preemergence
In short: as §2

common sowthistle = test: Test E pre-/postemergence herbicide test; format: in vivo, Sonchus oleraceous; conditions: Preemergence
In short: as §2

quackgrass = test: Test E pre-/postemergence herbicide test; format: in vivo, Elytrigia repens; conditions: Preemergence
In short: as §2

field bindweed = test: Test E pre-/postemergence herbicide test; format: in vivo, Convolvulus arvensis; conditions: Preemergence
In short: as §2

Russian thistle = test: Test E pre-/postemergence herbicide test; format: in vivo, Salsola kali; conditions: Preemergence
In short: as §2

[3] = Postemergence, 500 g ai/ha, scale 0 to 100, 0 no effect, 100 complete control
[4] = postemergence, 125 g ai/ha, scale 0 to 100
[5] = postemergence, 62 g ai/ha, scale 0 to 100
[6] = 250 g ai/ha, scale 0 (no effect) to 100 (complete control)
[7] = 500 g ai/ha, scale 0 (no effect) to 100 (complete control)

Compound: CCNC(=O)c1cccc(NC(=O)c2nn(C(C)(C)C)nc2C)c1 [Compound 392]
- Plant response rating, Foxtail, Green (green foxtail [1]; Postemergence, 250 g ai/ha, scale 0 to 100, 0 no effect, 100 complete control): 65
- Plant response rating, Foxtail, Green (green foxtail [1]; [3]): 70
- Plant response rating, Foxtail, Green (green foxtail [1]; [4]): 60
- Plant response rating, Foxtail, Green (green foxtail [1]; [5]): 60
- Plant response rating, Wheat (wheat; [3]): 35
- Plant response rating, Wheat (wheat; [4]): 30
- Plant response rating, Wheat (wheat; [5]): 20
- Plant response rating, Beggarticks, Bip. (bipinnate beggarticks; 125 g ai/ha, scale 0 to 100): 10
- Plant response rating, Beggarticks, Bip. (bipinnate beggarticks; [6]): 80
- Plant response rating, Beggarticks, Bip. (bipinnate beggarticks; [7]): 100
- Plant response rating, Bermudagrass (bermudagrass; 62 g ai/ha, scale 0 to 100): 60
- Plant response rating, Bermudagrass (bermudagrass; 125 g ai/ha, scale 0 to 100): 60
- Plant response rating, Bermudagrass (bermudagrass; [6]): 85
- Plant response rating, Bermudagrass (bermudagrass; [7]): 90
- Plant response rating, Foxtail, Green (green foxtail [2]; 62 g ai/ha, scale 0 to 100): 10
- Plant response rating, Foxtail, Green (green foxtail [2]; [6]): 70
- Plant response rating, Foxtail, Green (green foxtail [2]; [7]): 95
- Plant response rating, Goosegrass (goosegrass; 62 g ai/ha, scale 0 to 100): 20
- Plant response rating, Goosegrass (goosegrass; 125 g ai/ha, scale 0 to 100): 70
- Plant response rating, Goosegrass (goosegrass; [6]): 85
- Plant response rating, Goosegrass (goosegrass; [7]): 95
- Plant response rating, Johnsongrass (johnsongrass; 62 g ai/ha, scale 0 to 100): 10
- Plant response rating, Johnsongrass (johnsongrass; 125 g ai/ha, scale 0 to 100): 30
- Plant response rating, Johnsongrass (johnsongrass; [6]): 90
- Plant response rating, Johnsongrass (johnsongrass; [7]): 95
- Plant response rating, Sandbur (southern sandbur; 62 g ai/ha, scale 0 to 100): 0
- Plant response rating, Sandbur (southern sandbur; 125 g ai/ha, scale 0 to 100): 10
- Plant response rating, Sandbur (southern sandbur; [6]): 20
- Plant response rating, Sandbur (southern sandbur; [7]): 70
- Plant response rating, Sowthistle (common sowthistle; 62 g ai/ha, scale 0 to 100): 20
- Plant response rating, Sowthistle (common sowthistle; 125 g ai/ha, scale 0 to 100): 95
- Plant response rating, Sowthistle (common sowthistle; [6]): 95
- Plant response rating, Sowthistle (common sowthistle; [7]): 95
- Plant response rating, Quackgrass (quackgrass; 62 g ai/ha, scale 0 to 100): 10
- Plant response rating, Quackgrass (quackgrass; 125 g ai/ha, scale 0 to 100): 60
- Plant response rating, Quackgrass (quackgrass; [6]): 70
- Plant response rating, Quackgrass (quackgrass; [7]): 95
- Plant response rating, Bindweed, Field (field bindweed; 62 g ai/ha, scale 0 to 100): 30
- Plant response rating, Bindweed, Field (field bindweed; 125 g ai/ha, scale 0 to 100): 30
- Plant response rating, Bindweed, Field (field bindweed; [6]): 100
- Plant response rating, Bindweed, Field (field bindweed; [7]): 100
- Plant response rating, Thistle (Russian thistle; 125 g ai/ha, scale 0 to 100): 10
- Plant response rating, Thistle (Russian thistle; [7]): 100
